From US20250032426A1, “PHARMACEUTICAL COMPOSITIONS” (SpecNova LLC, priority 2021, published 2025)

Biological target: Human Dopamine Transporter (DAT) (Homo sapiens, UniProt Q01959)
Experiment: Human Dopamine Transporter (DAT) Binding (Antagonist Radioligand) Assay
Conditions: for % of Control Specific Binding (1st Test) / % of Control Specific Binding (2nd Test) / % Inhibition of Control Specific Binding / % of Control Specific Binding (mean of two tests): [3H]BTCP 4 nM radioligand; for % Inhibition of Control Specific Binding: cell membrane homogenates, 120 min at 4° C., test concentration not given; for level of inhibition in the dopamine transporter inhibitory assay (in words): qualitative statement in the description
Procedure: Human Dopamine Transporter (DAT) Binding (Antagonist Radioligand) Assay
Nonspecific binding is determined in the presence of 10 μM BTCP. Following incubation, the samples are filtered rapidly under vacuum through glass fiber filters (GF/B, Packard) presoaked with 0.3% PEI and rinsed several times with ice-cold 50 mM Tris-HCl using a 96-sample cell harvester (Unifilter, Packard). The filters are dried then counted for radioactivity in a scintillation counter (Topcount, Packard) using a scintillation cocktail (Microscint 0, Packard). The results are expressed as a percent inhibition of the control radioligand specific binding.

Human Dopamine Transporter (DAT), sequence (Q01959 whole entry): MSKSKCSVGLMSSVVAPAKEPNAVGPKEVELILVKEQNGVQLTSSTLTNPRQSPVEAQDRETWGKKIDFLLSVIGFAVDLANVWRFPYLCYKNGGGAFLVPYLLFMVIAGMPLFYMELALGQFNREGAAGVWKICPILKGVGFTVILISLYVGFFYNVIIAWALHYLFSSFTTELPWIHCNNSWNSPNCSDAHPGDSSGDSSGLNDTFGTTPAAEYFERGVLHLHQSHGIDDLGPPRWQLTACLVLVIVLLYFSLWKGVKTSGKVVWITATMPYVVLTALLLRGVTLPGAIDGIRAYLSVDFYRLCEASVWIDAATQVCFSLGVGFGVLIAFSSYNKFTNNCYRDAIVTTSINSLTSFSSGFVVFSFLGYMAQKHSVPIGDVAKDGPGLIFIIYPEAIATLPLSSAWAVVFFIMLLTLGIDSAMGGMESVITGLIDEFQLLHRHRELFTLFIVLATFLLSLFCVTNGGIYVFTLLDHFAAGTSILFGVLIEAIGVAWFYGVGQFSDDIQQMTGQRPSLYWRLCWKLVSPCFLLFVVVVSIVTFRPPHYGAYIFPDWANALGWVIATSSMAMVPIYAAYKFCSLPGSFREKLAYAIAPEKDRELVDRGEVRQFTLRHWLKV

| SMILES | % of Control Specific Binding (1st Test) [%] | % of Control Specific Binding (2nd Test) [%] | % Inhibition of Control Specific Binding [%] | % of Control Specific Binding (mean of two tests) [%] | level of inhibition in the dopamine transporter inhibitory assay (in words) |
| --- | --- | --- | --- | --- | --- |
| CC(C)=CCc1c(C2CCc3ccc(O)cc3O2)ccc(O)c1O (stereo in doubt) [Kazinol U, 4-[(2S)-7-hydroxy-3,4-dihydro-2H-chromen-2-yl]-3-(3-methylbut-2-enyl) benzene-1,2-diol] | 33.6 | 42.8 | 62 | 38.2 | high level of inhibition |
| OC[C@@H](O)[C@@H](/C=C/c1ccc(O)cc1)c1ccc(O)cc1 [Agatharesinol, (2S,3S,4E)-3,5-bis(4-hydroxyphenyl)pent-4-ene-1,2-diol] | 4.2 | 5 | 95 | 4.6 | extremely high level of inhibition |
| OC[C@@H](O)[C@@H](/C=C/c1ccc(O)cc1)c1ccc(O)c(O)c1 [Sequirin C, 4-[(1S,2E)-1-[(1S)-1,2-dihydroxyethyl]-3-(4-hydroxyphenyl)prop-2-en-1-yl]benzene-1,2-diol] | 7.4 | 5.6 | 94 | 6.5 | extremely high level of inhibition |
